The values below come from patent US20240218399A1, “LIPID COMPOUNDS AND LIPID NANOPARTICLE COMPOSITIONS” (SUZHOU ABOGEN BIOSCIENCES CO., LTD., priority 2021, published 2024).

One test has as its system female ICR mice. Description: In vivo hEPO mRNA expression, serum hEPO after tail vein injection. The conditions noted are these: 0.5 mg/kg tail vein; for in vivo mRNA expression of sphingomyelin-containing LNP compared to corresponding DSPC control formulation: FIG. 9; for hEPO protein expression level in mice among formulations of Table 6.7: FIG. 7, sphingomyelin of different tail length. The procedure:
Lipid nanoparticles encapsulating human erythropoietin (hEPO) mRNA were prepared as described above, and systemically administered to 6-8 week old female ICR mice (Xipuer-Bikai, Shanghai) at 0.5 mg/kg dose by tail vein injection. Mice were euthanized by CO2 overdoses at 6 hours post administration, and blood samples were taken for hEPO measurement. Particularly, serum were separated from total blood by centrifugation at 5000 g for 10 minutes at 4° C., snap-frozen and stored at −80° C. for analysis. The serum hEPO level was measured using an ELSA assay carried out using a commercial kit (DEP00, R&D systems) according to manufacturer's instructions. The hEPO expression levels (μg/ml) measured from the tested group are plotted in FIG. 4, showing the mean value and standard deviation (SD) of at least five repeated experiments (test animals) for each group.
(§1) Each LNP formulation was systemically administered to 6-8 week old female ICR mice (Xipuer-Bikai, Shanghai) at 0.5 mg/kg dose by tail vein injection, and blood samples were taken for hEPO measurement as described herein. The hEPO expression levels (μg/ml) measured from the tested group are plotted in FIG. 6, showing the mean value and standard deviation (SD) of at least five repeated experiments (test animals) for each group.
Each LNP formulation was systemically administered to 6-8 week old female ICR mice (Xipuer-Bikai, Shanghai) at 0.5 mg/kg dose by tail vein injection, and blood samples were taken for hEPO measurement as described herein. The hEPO expression levels (μg/ml) measured from the tested group are plotted in FIG. 7, showing the mean value and standard deviation (SD) of at least five repeated experiments (test animals) for each group.
as §1, with “9,” for “6,”, “group. As shown, for each of the tested cationic lipids, the average in vivo expression level of mRNA was higher for the sphingomyelin containing composition as compared to the corresponding control formulation containing an equivalent amount of DSPC instead of sphingomyelin.” for “group.”

A further test relates to Hela cells. Description: In vitro GFP mRNA expression from LNP formulations. The test is classed as cell-based. The conditions noted are these: for in vitro GFP expression of LNP formulated using sphingomyelin with this cationic lipid: FIG. 3C. The procedure: Lipid nanoparticles encapsulating green fluorescent protein (GFP) mRNA were prepared as described above. Hela cell line was seeded in a 96-well plate. LNP formulation was mixed with 10 μg/mL ApoE at 1:1 (v/v) ratio, then added to the cells at 200 ng/well or 400 ng/well concentrations, and incubated for 36 to 48 hours. GFP intensity was measured with […] following manufacturer's instructions, and fluorescence intensity (relative light units; RLU) of different groups were plotted in FIG. 3A to 3C, showing the mean value and standard deviation (SD) of at least five repeated experiments for each group.
Hela cell line was seeded in a 96-well plate. LNP formulation was mixed with 10 μg/mL ApoE at 1:1 (v/v) ratio at 37° C. for 15 min, then added to the cells at 400 ng/well concentrations, and incubated for 36 to 48 hours. GFP intensity was measured with […] following manufacturer's instructions, and fluorescence intensity (relative light units; RLU) of different groups were plotted in FIG. 8, showing the mean value and standard deviation (SD) of at least three repeated experiments for each group.

SMILES strings stand for the structures.

On to `CCCCCCCCC(CCCCCC)C(=O)OCCCCCCN(CCCCO)CCCCCCOC(=O)C(CCCCCC)CCCCCCCC` (stereo not drawn) [ALC-0315, reference compound], for which the “in vivo mRNA expression of sphingomyelin-containing LNP compared to corresponding DSPC control formulation” value with female ICR mice was “significantly higher”. As to `CCCCCCCCC(CCCCCC)COC(=O)CCCCCN(CCCCCC(=O)OCC(CCCCCC)CCCCCCCC)CCN(CCO)C1CCC1` (stereo not drawn) [Formulation C1], the “in vivo mRNA expression of sphingomyelin-containing LNP compared to corresponding DSPC control formulation” value with female ICR mice is on record as “significantly higher”. For the same compound, in the test with Hela cells, the “in vitro GFP expression of LNP formulated using sphingomyelin with this cationic lipid” value is “enhanced in vitro GFP expression”. Regarding `CCCCCCCCC(CCCCCCCC)CNC(=O)CCCCCN(CCO)CCN(CCCCCC(=O)OCC(CCCCCCCC)CCCCCCCC)C1CCC1` [Formulation C3], the “in vitro mRNA expression of sphingomyelin-containing LNP compared to corresponding DSPC control formulation” value in the test with Hela cells (GFP mRNA, 400 ng/well, FIG. 8) is reported as “significantly higher”.

Regarding `CCCCCCCC(=O)OCC(CCCCN(CCCCCO)CCCCC(COC(=O)CCCCCCC)COC(=O)CCCCCCC)COC(=O)CCCCCCC` [Formulation C14], the “in vivo mRNA expression of sphingomyelin-containing LNP compared to corresponding DSPC control formulation” value in the test with female ICR mice is “significantly higher”. Still for that read-out and setting: the value for `CCCCC/C=C\C/C=C\CCCCCCCC(=O)OCCCCCCN(CCO)CCCCC(COC(=O)CCCCCCC)COC(=O)CCCCCCC` [Formulation C16] was “significantly higher”. For the compound `CCCCCCCCCOC(=O)CCCCCCCN(CCO)CCCCCCCC(=O)OC(CCCCCCCC)CCCCCCCC` [Lipid 5, reference compound], the “in vitro GFP expression of LNP formulated using sphingomyelin with this cationic lipid” value in the test on Hela cells is “enhanced in vitro GFP expression”. In the case of `CCCCCCCCCCCCC/C=C/[C@@H](O)[C@H](COP(=O)([O-])OCC[N+](C)(C)C)NC(=O)CCCCCCCCCCCCC` [SM-02, 14:0(d18:1/14:0)], the “hEPO protein expression level in mice among formulations of Table 6.7” value with female ICR mice is “highest protein expression level”. Same read-out and setting: the value for `CCCCCCCCCCCCC/C=C/[C@@H](O)[C@H](COP(=O)([O-])OCC[N+](C)(C)C)NC(=O)CCCCCCCCCCCCCCC` [SM-03, 16:0(d18:1/16:0)] was “highest protein expression level”.
